Measurements published in patent US20190119193A1, “COMPOSITION FOR REGULATING PLANT GROWTH, METHOD FOR TREATING PLANTS THEREWITH, AND ACTIVE INGREDIENT THEREOF” (Ivan Aleksandrovich Starikov, priority 2016, published 2019).

How the values were obtained:
Assay type in all cases: in vivo
Settings in all cases: for Germinative energy: day 3; for Germinative capacity / Number of lateral roots / Sprout height / Taproot length: day 7
[1] = system: soybean seeds (“Vilana” variety); test: Laboratory tests of DMOA and DEOA for soybean seeds
Description: (§1) After that DMOA and DEOA were dissolved in dimethyl sulfoxide to give solutions of 10 g/L concentration, then water was added to give aqueous solutions of DMOA with concentrations of 5.5·10^−5 M, 5.5·10^−6 M, 5.5·10^−7 M, 5.5·10^−8 M, 5.5·10^−9 M and DEOA with concentrations of 4.8·10^−5 M, 4.8·10^−6 M, 4.8·10^−7 M, 4.8·10^−8 M, 4.8·10^−9 M.
(§2) The obtained aqueous solutions of DMOA and DEOA were tested in the Scientific Center of Soil-Ecological Reasearch of the Federal State-Funded Educational Institution of Higher Education “Russian State Agrarian University—Moscow Agricultural Academy named after K. A. Timiryazev” (Moscow, 2015) according to the method described by T. A. Sergeeva (Method of laboratory testing of herbicides, Plant protection, 1963, No. 2, pp. 42-43). The primary laboratory screening of DMOA and DEOA was carried out on the seeds of five different crops: sunflower of “Voronezh 638” variety, soybean of “Vilana” variety, alfalfa of “Vega” variety, cucumber of “Nezhinsky” variety and tomato of “Volgogradets” variety.
(§3) Water was used as a reference.
(§4) A single experiment was carried out in a Petri dish. A circle of filter paper was laid at the bottom of the dish and treated with 5 ml of the work solution selected for the experiment. After that 25 seeds were uniformly laid on the surface of the treated filter paper. The Petri dish was kept at a temperature of 21-23° C. with illumination by fluorescent lamps for 7 days. The fourfold replication of the experiment within a single variant was applied.
(§5) The experiment identified the number and percentage of normally germinated seeds on day 3 (germinative energy) and on day 7 (germinative capacity) after the beginning of the experiment. On day 7 the main biometric parameters were also measured: sprout height (mm), taproot length (mm) and number of lateral roots (pcs).
(§6) The results were processed with the method of variance analysis with the help of STRAZ software in order to get the LSD0.05 (least significant difference between the test results on 5% significance level).

[2] = system: alfalfa seeds (“Vega” variety); test: Laboratory tests of DMOA and DEOA for alfalfa seeds
Description: as §1, §2, §3, §4, §5, §6

[3] = system: tomato seeds (“Volgogradets” variety); test: Laboratory tests of DMOA and DEOA for tomato seeds
Description: as §1, §2, §3, §4, §5, §6

[4] = system: sunflower seeds (“Voronezh 638” variety); test: Laboratory tests of DMOA and DEOA for sunflower seeds
Description: as §1, §2, §3, §4, §5, §6

Sodium salt of dimethyl ester of oxaloacetic acid [DMOA]
Germinative energy ([1]; 5.5 · 10^−5 M): 78%
Germinative capacity ([1]; 5.5 · 10^−5 M): 89%
Number of lateral roots ([1]; 5.5 · 10^−5 M): 0.2 pcs.
Sprout height ([1]; 5.5 · 10^−5 M): 16.0 mm
Taproot length ([1]; 5.5 · 10^−5 M): 35.5 mm
Germinative energy ([1]; 5.5 · 10^−6 M): 82%
Germinative capacity ([1]; 5.5 · 10^−6 M): 97%
Number of lateral roots ([1]; 5.5 · 10^−6 M): 0.0 pcs.
Sprout height ([1]; 5.5 · 10^−6 M): 19.0 ↑ mm
Taproot length ([1]; 5.5 · 10^−6 M): 37.6 mm
Germinative energy ([1]; 5.5 · 10^−7 M): 65%
Germinative capacity ([1]; 5.5 · 10^−7 M): 90%
Number of lateral roots ([1]; 5.5 · 10^−7 M): 0.0 pcs.
Sprout height ([1]; 5.5 · 10^−7 M): 19.0 ↑ mm
Taproot length ([1]; 5.5 · 10^−7 M): 39.5 mm
Germinative energy ([1]; 5.5 · 10^−8 M): 77%
Germinative capacity ([1]; 5.5 · 10^−8 M): 87%
Number of lateral roots ([1]; 5.5 · 10^−8 M): 0.0 pcs.
Sprout height ([1]; 5.5 · 10^−8 M): 19.5 ↑↑ mm
Taproot length ([1]; 5.5 · 10^−8 M): 38.4 mm
Germinative energy ([1]; 5.5 · 10^−9 M): 72%
Germinative capacity ([1]; 5.5 · 10^−9 M): 83%
Number of lateral roots ([1]; 5.5 · 10^−9 M): 0.0 pcs.
Sprout height ([1]; 5.5 · 10^−9 M): 17.8 ↑ mm
Taproot length ([1]; 5.5 · 10^−9 M): 37.0 mm
Germinative energy ([2]; 5.5 · 10^−5 M): 93%
Germinative capacity ([2]; 5.5 · 10^−5 M): 100 ↑ %
Number of lateral roots ([2]; 5.5 · 10^−5 M): 0.6 ↑ pcs.
Sprout height ([2]; 5.5 · 10^−5 M): 30.0 mm
Taproot length ([2]; 5.5 · 10^−5 M): 28.1 mm
Germinative energy ([2]; 5.5 · 10^−6 M): 88%
Germinative capacity ([2]; 5.5 · 10^−6 M): 100 ↑ %
Number of lateral roots ([2]; 5.5 · 10^−6 M): 0.7 ↑ pcs.
Sprout height ([2]; 5.5 · 10^−6 M): 29.0 mm
Taproot length ([2]; 5.5 · 10^−6 M): 30.9 mm
Germinative energy ([2]; 5.5 · 10^−7 M): 88%
Germinative capacity ([2]; 5.5 · 10^−7 M): 93%
Number of lateral roots ([2]; 5.5 · 10^−7 M): 0.6 ↑ pcs.
Sprout height ([2]; 5.5 · 10^−7 M): 28.9 mm
Taproot length ([2]; 5.5 · 10^−7 M): 31.3 mm
Germinative energy ([2]; 5.5 · 10^−8 M): 98 ↑ %
Germinative capacity ([2]; 5.5 · 10^−8 M): 93%
Number of lateral roots ([2]; 5.5 · 10^−8 M): 0.5 ↑ pcs.
Sprout height ([2]; 5.5 · 10^−8 M): 28.9 mm
Taproot length ([2]; 5.5 · 10^−8 M): 31.2 mm
Germinative energy ([2]; 5.5 · 10^−9 M): 88%
Germinative capacity ([2]; 5.5 · 10^−9 M): 100 ↑ %
Number of lateral roots ([2]; 5.5 · 10^−9 M): 0.6 ↑ pcs.
Sprout height ([2]; 5.5 · 10^−9 M): 30.1 mm
Taproot length ([2]; 5.5 · 10^−9 M): 35.6 mm
Germinative energy ([3]; 5.5 · 10^−5 M): 93%
Germinative capacity ([3]; 5.5 · 10^−5 M): 95%
Number of lateral roots ([3]; 5.5 · 10^−5 M): 0.2 pcs.
Sprout height ([3]; 5.5 · 10^−5 M): 25.9 mm
Taproot length ([3]; 5.5 · 10^−5 M): 83.2 ↑ mm
Germinative energy ([3]; 5.5 · 10^−6 M): 88%
Germinative capacity ([3]; 5.5 · 10^−6 M): 90%
Number of lateral roots ([3]; 5.5 · 10^−6 M): 0.5 ↑ pcs.
Sprout height ([3]; 5.5 · 10^−6 M): 24.6 mm
Taproot length ([3]; 5.5 · 10^−6 M): 79.8 mm
Germinative energy ([3]; 5.5 · 10^−7 M): 88%
Germinative capacity ([3]; 5.5 · 10^−7 M): 98 ↑ %
Number of lateral roots ([3]; 5.5 · 10^−7 M): 0.6 ↑ pcs.
Sprout height ([3]; 5.5 · 10^−7 M): 23.7 mm
Taproot length ([3]; 5.5 · 10^−7 M): 74.5 mm
Germinative energy ([3]; 5.5 · 10^−8 M): 98 ↑ %
Germinative capacity ([3]; 5.5 · 10^−8 M): 98 ↑ %
Number of lateral roots ([3]; 5.5 · 10^−8 M): 0.1 pcs.
Sprout height ([3]; 5.5 · 10^−8 M): 23.4 mm
Taproot length ([3]; 5.5 · 10^−8 M): 83.6 ↑ mm
Germinative energy ([3]; 5.5 · 10^−9 M): 88%
Germinative capacity ([3]; 5.5 · 10^−9 M): 90%
Number of lateral roots ([3]; 5.5 · 10^−9 M): 0.7 ↑ pcs.
Sprout height ([3]; 5.5 · 10^−9 M): 24.4 mm
Taproot length ([3]; 5.5 · 10^−9 M): 86.9 ↑↑ mm
Germinative energy ([4]; 5.5 · 10^−5 M): 80%
Germinative capacity ([4]; 5.5 · 10^−5 M): 90%
Number of lateral roots ([4]; 5.5 · 10^−5 M): 9.7 pcs.
Sprout height ([4]; 5.5 · 10^−5 M): 23.8 mm
Taproot length ([4]; 5.5 · 10^−5 M): 35.2 mm
Germinative energy ([4]; 5.5 · 10^−6 M): 83%
Germinative capacity ([4]; 5.5 · 10^−6 M): 93%
Number of lateral roots ([4]; 5.5 · 10^−6 M): 8.5 pcs.
Sprout height ([4]; 5.5 · 10^−6 M): 23.0 mm
Taproot length ([4]; 5.5 · 10^−6 M): 46.4 ↑ mm
Germinative energy ([4]; 5.5 · 10^−7 M): 90 ↑ %
Germinative capacity ([4]; 5.5 · 10^−7 M): 93%
Number of lateral roots ([4]; 5.5 · 10^−7 M): 8.2 pcs.
Sprout height ([4]; 5.5 · 10^−7 M): 26.9 ↑ mm
Taproot length ([4]; 5.5 · 10^−7 M): 29.8 ↓ mm
Germinative energy ([4]; 5.5 · 10^−8 M): 93 ↑ %
Germinative capacity ([4]; 5.5 · 10^−8 M): 91%
Number of lateral roots ([4]; 5.5 · 10^−8 M): 7.8 pcs.
Sprout height ([4]; 5.5 · 10^−8 M): 28.8 ↑↑ mm
Taproot length ([4]; 5.5 · 10^−8 M): 38.1 mm
Germinative energy ([4]; 5.5 · 10^−9 M): 87%
Germinative capacity ([4]; 5.5 · 10^−9 M): 93%
Number of lateral roots ([4]; 5.5 · 10^−9 M): 11.6 ↑ pcs.
Sprout height ([4]; 5.5 · 10^−9 M): 27.8 mm
Taproot length ([4]; 5.5 · 10^−9 M): 51.9 ↑ mm
